Laboratory results taken from PMC9146426, “3,6′- and 1,6′-Dithiopomalidomide Mitigate Ischemic Stroke in Rats and Blunt Inflammation” (Pharmaceutics, 2022).

Biological target: T1, cereblon (Homo sapiens, UniProt Q96SW2)
T1 construct: gene CRBN; cereblon/DDB1-CUL4A-Rbx1 complex; with DDB1-CUL4A-Rbx1
Test: AlphaScreen bead-based cereblon binding assay (BPS Bioscience #[…]) with BRD3

T1 sequence (Q96SW2 whole entry): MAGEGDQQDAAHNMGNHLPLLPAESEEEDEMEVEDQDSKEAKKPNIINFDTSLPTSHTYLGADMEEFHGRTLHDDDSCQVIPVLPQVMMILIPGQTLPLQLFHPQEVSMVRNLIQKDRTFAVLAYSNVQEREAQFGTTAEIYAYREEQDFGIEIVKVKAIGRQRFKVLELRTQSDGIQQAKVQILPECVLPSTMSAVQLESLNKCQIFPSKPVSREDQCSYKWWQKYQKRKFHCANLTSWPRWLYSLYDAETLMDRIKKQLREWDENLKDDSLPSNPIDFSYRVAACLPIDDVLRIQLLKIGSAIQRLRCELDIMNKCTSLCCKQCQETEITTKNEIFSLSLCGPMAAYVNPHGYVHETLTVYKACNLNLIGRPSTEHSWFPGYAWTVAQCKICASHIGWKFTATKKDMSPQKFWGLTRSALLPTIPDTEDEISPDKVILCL
T1 sequence (Q16531 2-1140 partner): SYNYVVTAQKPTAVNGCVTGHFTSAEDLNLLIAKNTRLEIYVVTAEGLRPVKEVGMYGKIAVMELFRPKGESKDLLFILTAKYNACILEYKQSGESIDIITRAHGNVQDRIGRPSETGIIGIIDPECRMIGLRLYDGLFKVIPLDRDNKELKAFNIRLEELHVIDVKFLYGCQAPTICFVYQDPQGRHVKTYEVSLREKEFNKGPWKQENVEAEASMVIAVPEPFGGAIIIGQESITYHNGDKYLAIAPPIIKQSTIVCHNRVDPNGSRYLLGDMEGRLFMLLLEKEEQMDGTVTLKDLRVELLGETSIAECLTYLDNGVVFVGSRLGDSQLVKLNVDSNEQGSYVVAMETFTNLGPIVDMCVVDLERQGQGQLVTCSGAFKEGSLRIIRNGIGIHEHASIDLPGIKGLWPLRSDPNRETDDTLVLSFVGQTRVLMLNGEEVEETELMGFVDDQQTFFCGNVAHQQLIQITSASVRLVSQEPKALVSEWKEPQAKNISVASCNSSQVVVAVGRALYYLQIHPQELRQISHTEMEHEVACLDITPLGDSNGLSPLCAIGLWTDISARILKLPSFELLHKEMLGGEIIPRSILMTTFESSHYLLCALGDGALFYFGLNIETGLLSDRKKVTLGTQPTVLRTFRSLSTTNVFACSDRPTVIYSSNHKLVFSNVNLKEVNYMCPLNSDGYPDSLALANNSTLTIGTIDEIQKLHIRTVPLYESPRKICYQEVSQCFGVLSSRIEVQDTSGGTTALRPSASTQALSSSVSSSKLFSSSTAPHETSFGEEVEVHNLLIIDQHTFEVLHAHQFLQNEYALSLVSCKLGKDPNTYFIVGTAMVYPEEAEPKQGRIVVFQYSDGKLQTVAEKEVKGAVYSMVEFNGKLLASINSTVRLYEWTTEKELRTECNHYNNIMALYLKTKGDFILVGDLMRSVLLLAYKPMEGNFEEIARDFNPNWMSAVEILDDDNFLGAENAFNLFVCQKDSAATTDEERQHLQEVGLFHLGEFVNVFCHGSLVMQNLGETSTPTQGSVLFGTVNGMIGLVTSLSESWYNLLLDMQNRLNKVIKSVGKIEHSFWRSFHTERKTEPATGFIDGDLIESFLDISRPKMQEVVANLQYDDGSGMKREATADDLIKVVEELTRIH
T1 sequence (Q13619 whole entry partner): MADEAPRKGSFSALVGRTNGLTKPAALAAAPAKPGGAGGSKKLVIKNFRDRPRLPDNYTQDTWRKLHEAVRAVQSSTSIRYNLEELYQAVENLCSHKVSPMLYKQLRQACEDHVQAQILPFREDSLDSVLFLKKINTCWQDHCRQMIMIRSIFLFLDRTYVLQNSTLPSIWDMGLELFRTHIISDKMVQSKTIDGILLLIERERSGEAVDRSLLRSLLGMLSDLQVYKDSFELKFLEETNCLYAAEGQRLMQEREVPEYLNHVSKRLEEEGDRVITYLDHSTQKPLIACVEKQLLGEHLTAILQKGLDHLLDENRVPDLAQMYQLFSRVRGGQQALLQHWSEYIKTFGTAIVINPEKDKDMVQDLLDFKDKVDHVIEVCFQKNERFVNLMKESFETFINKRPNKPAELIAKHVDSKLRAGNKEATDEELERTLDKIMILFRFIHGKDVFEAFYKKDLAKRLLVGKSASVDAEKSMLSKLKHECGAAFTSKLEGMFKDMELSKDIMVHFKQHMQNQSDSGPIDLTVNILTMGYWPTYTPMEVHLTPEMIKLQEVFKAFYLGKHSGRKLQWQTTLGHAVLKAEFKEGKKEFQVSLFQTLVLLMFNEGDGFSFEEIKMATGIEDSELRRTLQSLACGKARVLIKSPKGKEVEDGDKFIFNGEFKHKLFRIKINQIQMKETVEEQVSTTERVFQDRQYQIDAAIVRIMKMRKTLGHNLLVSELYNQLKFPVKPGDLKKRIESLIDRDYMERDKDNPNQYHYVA
T1 sequence (P62877 whole entry partner): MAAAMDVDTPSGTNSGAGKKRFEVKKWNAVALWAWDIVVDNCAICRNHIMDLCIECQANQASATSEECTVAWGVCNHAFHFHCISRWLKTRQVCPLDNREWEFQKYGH

Row | SMILES | IC50
1 | Nc1cccc2c1C(=S)N(C1CCC(=S)NC1=O)C2=O (centres unmarked) [3,6′-DP, 3,6′-dithiopomalidomide] | 940 nM
2 | Nc1cccc2c1C(=O)N(C1CCC(=S)NC1=O)C2=S (centres unmarked) [1,6′-DP, 1,6′-dithiopomalidomide] | 1520 nM
